In article PMC2375326, “In vitro evaluation of amino acid prodrugs of novel antitumour 2-(4-amino-3-methylphenyl)benzothiazoles” (British Journal of Cancer, 2002):

Experiments:
[1] = tested on: MDA 468 (ER−) human derived breast carcinoma cells; assay: Growth inhibitory assay (MTT), MDA 468; assay type: cell-based; conditions: Breast carcinoma cell, ER− MDA 468, 3 days (72 h) treatment, n=8, representative mean, ^a = biphasic dose response
Description: Prodrugs were prepared as 10 mM top stocks, dissolved in dimethylsulphoxide (DMSO) or sterile ddH2O, and stored at 4°C, protected from light for a maximum period of 4 weeks. MCF-7 (ER+) and MDA 468 (ER−) human derived breast carcinoma cells, cultivated at 37°C in an atmosphere of 5% CO2 in RPMI 1640 medium supplemented with 2 mM L-glutamine and 10% foetal calf serum, were routinely subcultured twice weekly to maintain continuous logarithmic growth. Cells were seeded into 96-well microtiter plates at a density of 5×10^3 per well and allowed 24 h to adhere before drugs were introduced (final concentration 0.1 nM–100 μM, n=8). Serial drug dilutions were prepared in medium immediately prior to each assay. Viable cell masses at the time of drug addition (time-zero), and following 72 h drug exposure were determined by cell-mediated 3-(4,5-dimethylthiazol-2-yl)-2,5-diphenyltetrazolium bromide (MTT) reduction. MTT was added to each well (final concentration 400 μg ml^−1) and plates were incubated at 37°C for 4 h to allow reduction of MTT by viable cell dehydrogenases to an insoluble formazan product. Well supernatants were aspirated and cellular formazan solubilised by addition of DMSO : glycine buffer (pH 10.5) (4 : 1). Cell growth as well as drug activity were determined by measuring absorbance at 550 nm using an Anthos Labtec systems plate reader.

[2] = tested on: CYP1A1 protein expression in MCF-7 cells; assay: Western blot of CYP1A1 protein, MCF-7 lysates; assay type: cell-based, human; conditions: 1 μM, 24 h
Description: Whole cell lysates were prepared for examination of CYP1A1 protein expression from untreated MCF-7, IGROV-1 and HCT 116 cultures and following exposure of cells to compounds 1, 2, 2a, 2b, 3, 3a, 3b, 4, 4a and 4b. Following protein determination (n=3, [Bradford, 1976]) and addition of sample buffer, samples were boiled at 95°C for 5 min and solubilised proteins (50 μg) were separated by sodium dodecyl sulphate (SDS) polyacrylamide gel (10%) electrophoresis. Proteins were electroblotted to polyvinylidene difluoride (PVDF) membranes and probed for CYP1A1 protein with polyclonal antiserum specific for human CYP1A1/1A2 (Gentest Corporation). Secondary antibody was conjugated to alkaline phosphatase, and CYP1A1 was detected following brief (<10 min) incubation with bromochloroindolyl phosphate and nitro-blue tetrazolium in alkaline phosphatase buffer. Molecular weight markers and a positive control of recombinant CYP1A1 (Gentest Corporation), included in all blots, confirmed detection of 52 kDa CYP1A1 protein.

A549/ATCC = assay: NCI in vitro cytotoxicity assay (SRB), A549/ATCC; assay type: cell-based; conditions: Homo sapiens, 48 h exposure, sulforhodamine B assay, mean graph, read-out: Log10 GI50 (A549/ATCC) (converted)
Description: (§1) Cell culture and drug application procedures have been described previously ([Boyd and Paull, 1995]). Briefly, cell lines were inoculated into a series of 96-well microtiter plates, with varied seeding densities depending on growth characteristics of each cell line. Following a 24 h drug free incubation, test agents were added at five 10-fold dilutions with a maximum concentration of 100 μM. Cellular protein levels were determined after 48 h drug exposure by sulphorhodamine B colorimetry.

HOP-62 = assay: NCI in vitro cytotoxicity assay (SRB), HOP-62; assay type: cell-based; conditions: Homo sapiens, 48 h exposure, sulforhodamine B assay, mean graph, read-out: Log10 GI50 (HOP-62) (converted)
Description: as §1

HT29 = assay: NCI in vitro cytotoxicity assay (SRB), HT29; assay type: cell-based; conditions: Homo sapiens, HT-29; 48 h exposure, sulforhodamine B assay, mean graph; read-out: Log10 GI50 (HT29) (converted)
Description: as §1

SW-620 = assay: NCI in vitro cytotoxicity assay (SRB), SW-620; assay type: cell-based; conditions: Homo sapiens, 48 h exposure, sulforhodamine B assay, mean graph, read-out: Log10 GI50 (SW-620) (converted)
Description: as §1

MALME-3M = assay: NCI in vitro cytotoxicity assay (SRB), MALME-3M; assay type: cell-based; conditions: Homo sapiens, 48 h exposure, sulforhodamine B assay, mean graph, read-out: Log10 GI50 (MALME-3M) (converted)
Description: as §1

786-0 = assay: NCI in vitro cytotoxicity assay (SRB), 786-0; assay type: cell-based; conditions: Homo sapiens, 48 h exposure, sulforhodamine B assay, mean graph, read-out: Log10 GI50 (786-0) (converted)
Description: as §1

A498 = assay: NCI in vitro cytotoxicity assay (SRB), A498; assay type: cell-based; conditions: Homo sapiens, 48 h exposure, sulforhodamine B assay, mean graph, read-out: Log10 GI50 (A498) (converted)
Description: as §1

RXF 393 = assay: NCI in vitro cytotoxicity assay (SRB), RXF 393; assay type: cell-based; conditions: Homo sapiens, 48 h exposure, sulforhodamine B assay, mean graph, read-out: Log10 GI50 (RXF 393) (converted)
Description: as §1

TK-10 = assay: NCI in vitro cytotoxicity assay (SRB), TK-10; assay type: cell-based; conditions: Homo sapiens, 48 h exposure, sulforhodamine B assay, mean graph, read-out: Log10 GI50 (TK-10) (converted)
Description: as §1

UO 31 = assay: NCI in vitro cytotoxicity assay (SRB), UO 31; assay type: cell-based; conditions: Homo sapiens, 48 h exposure, sulforhodamine B assay, mean graph, read-out: Log10 GI50 (UO 31) (converted)
Description: as §1

PC-3 = assay: NCI in vitro cytotoxicity assay (SRB), PC-3; assay type: cell-based; conditions: Homo sapiens, 48 h exposure, sulforhodamine B assay, mean graph, read-out: Log10 GI50 (PC-3) (converted)
Description: as §1

MCF7 = assay: NCI in vitro cytotoxicity assay (SRB), MCF7; assay type: cell-based; conditions: Homo sapiens, 48 h exposure, sulforhodamine B assay, mean graph, read-out: Log10 GI50 (MCF7) (converted)
Description: as §1

Row | GI50 [1] [µM] | CYP1A1 protein expression (Western blot) [2] | SMILES | GI50 (A549/ATCC) [µM] | GI50 (HOP-62) [µM] | GI50 (HT29) [µM] | GI50 (SW-620) [µM] | GI50 (MALME-3M) [µM] | GI50 (786-0) [µM] | GI50 (A498) [µM] | GI50 (RXF 393) [µM] | GI50 (TK-10) [µM] | GI50 (UO 31) [µM] | GI50 (PC-3) [µM] | GI50 (MCF7) [µM]
1 | < 0.0001 | induced | Cc1cc(-c2nc3cc(F)ccc3s2)ccc1N [Compound 2, 2-(4-Amino-3-methylphenyl)-5-fluorobenzothiazole] | 6.92 | 18.6 | 63.1 | > 100 | 91.2 | 24 | 2.82 | 32.4 | < 0.01 | 85.1 | 23.4 | < 0.01
2 | 0.0577 | induced | Cc1cc(-c2nc3cc(F)ccc3s2)ccc1NC(=O)[C@@H](N)CCCCN [Compound 2b] | 1.7 | 6.31 | 3.24 | 3.63 | 17.4 | 4.07 | 12.6 | 7.24 | 0.0174 | 3.09 | 12.6 | < 0.01
